The values below come from the NIST ThermoML archive (doi:10.1016/j.tca.2018.04.007).

± gives the expanded uncertainty stated by the source.

For one series the following is noted: 323.15 K; 101.33 kPa; Liquid; transient hot wire.
Take `OCC(O)CO` [glycerol]: the thermal conductivity came out at 0.284 ± 0.002 W/m/K.
As for `CCCC[P+](C)(CCCC)CCCC.[Cl-]` [methyltributylphosphonium chloride], the thermal conductivity was 0.156 ± 0.002 W/m/K.
Same read-out and setting: then `CCCC[P+](C)(CCCC)CCCC.COS(=O)(=O)[O-]` [tributylmethylphosphonium methyl sulfate], with 0.158 ± 0.002 W/m/K.

Still in this series, the particulars now being: 333.15 K; 101.33 kPa; Liquid; Capillary tube (Ostwald / Ubbelohde) method.
As a reminder, the viscosity is the internal friction of a fluid under shear. For `CCCC[P+](C)(CCCC)CCCC.O=S(=O)([N-]S(=O)(=O)C(F)(F)F)C(F)(F)F`, the viscosity amounted to 38.4 ± 0.5 mPa·s.
On the same count and under the same terms, the figure for `CCCCn1cc[n+](C)c1.COS(=O)(=O)[O-]` [1-butyl-3-methylimidazolium methyl sulfate] is 40.5 ± 0.5 mPa·s; for `COS(=O)(=O)[O-].C[n+]1ccccc1` [1-methylpyridinium methylsulfate] it is 23 ± 0.3 mPa·s.
Same read-out and setting: the figure for `CCCC[P+](C)(CCCC)CCCC.[Cl-]` [methyltributylphosphonium chloride] is 416.8 ± 16 mPa·s; for `CCCC[P+](C)(CCCC)CCCC.COS(=O)(=O)[O-]` [tributylmethylphosphonium methyl sulfate] it is 113.9 ± 2 mPa·s.

The series is the same for the next values; noted with them: 333.15 K; 101.33 kPa; Liquid; Direct current cell with electrodes.
For the compound `CCCC[P+](C)(CCCC)CCCC.O=S(=O)([N-]S(=O)(=O)C(F)(F)F)C(F)(F)F`, the electrical conductivity turned out to be 0.279 ± 0.028 S/m.
On to `CCCCn1cc[n+](C)c1.COS(=O)(=O)[O-]` [1-butyl-3-methylimidazolium methyl sulfate], for which the electrical conductivity was found to be 0.623 ± 0.062 S/m.
Same read-out and setting: the figure for `COS(=O)(=O)[O-].C[n+]1ccccc1` [1-methylpyridinium methylsulfate] is 1.36 ± 0.14 S/m; for `CCCC[P+](C)(CCCC)CCCC.[Cl-]` [methyltributylphosphonium chloride] it is 0.052 ± 0.0052 S/m; for `CCCC[P+](C)(CCCC)CCCC.COS(=O)(=O)[O-]` [tributylmethylphosphonium methyl sulfate] it is 0.0882 ± 0.0088 S/m.

The series is the same for the next values; noted with them: 333.15 K; 101.33 kPa; Liquid; Vibrating tube method.
As usually defined, the mass density is the mass of a sample divided by its volume. Take `CCCC[P+](C)(CCCC)CCCC.O=S(=O)([N-]S(=O)(=O)C(F)(F)F)C(F)(F)F`: the mass density came out at 1225.64 ± 2 kg/m3.
`CCCCn1cc[n+](C)c1.COS(=O)(=O)[O-]` [1-butyl-3-methylimidazolium methyl sulfate]: the mass density is on record as 1185.76 ± 2 kg/m3.
For `COS(=O)(=O)[O-].C[n+]1ccccc1` [1-methylpyridinium methylsulfate], the mass density is reported as 1321.1 ± 2.1 kg/m3.
Same read-out and setting: the figure for `CCCC[P+](C)(CCCC)CCCC.[Cl-]` [methyltributylphosphonium chloride] is 937.42 ± 2 kg/m3.
Same read-out and setting: the figure for `CCCC[P+](C)(CCCC)CCCC.COS(=O)(=O)[O-]` [tributylmethylphosphonium methyl sulfate] is 1036.12 ± 2 kg/m3.

Staying with this series, now noted: 333.15 K; 101.33 kPa; Liquid; transient hot wire.
On to `CCCC[P+](C)(CCCC)CCCC.O=S(=O)([N-]S(=O)(=O)C(F)(F)F)C(F)(F)F`, for which the thermal conductivity is given as 0.122 ± 0.002 W/m/K.
Take `CCCCn1cc[n+](C)c1.COS(=O)(=O)[O-]` [1-butyl-3-methylimidazolium methyl sulfate]: the thermal conductivity is on record as 0.173 ± 0.002 W/m/K.
With `COS(=O)(=O)[O-].C[n+]1ccccc1` [1-methylpyridinium methylsulfate], the thermal conductivity was 0.202 ± 0.002 W/m/K.
On to `OCC(O)CO` [glycerol], for which the thermal conductivity is 0.284 ± 0.002 W/m/K.
Turning to `CCCC[P+](C)(CCCC)CCCC.[Cl-]` [methyltributylphosphonium chloride], the thermal conductivity stood at 0.155 ± 0.002 W/m/K.
Still for that read-out and setting: the figure for `CCCC[P+](C)(CCCC)CCCC.COS(=O)(=O)[O-]` [tributylmethylphosphonium methyl sulfate] is 0.157 ± 0.002 W/m/K.

Still in this series, the particulars now being: 343.15 K; 101.33 kPa; Liquid; Capillary tube (Ostwald / Ubbelohde) method.
For the compound `CCCC[P+](C)(CCCC)CCCC.O=S(=O)([N-]S(=O)(=O)C(F)(F)F)C(F)(F)F`, the viscosity stood at 27.5 ± 0.3 mPa·s.
On the same count and under the same terms, the figure for `CCCCn1cc[n+](C)c1.COS(=O)(=O)[O-]` [1-butyl-3-methylimidazolium methyl sulfate] is 28.9 ± 0.4 mPa·s.
Same read-out and setting: the figure for `COS(=O)(=O)[O-].C[n+]1ccccc1` [1-methylpyridinium methylsulfate] is 17.3 ± 0.2 mPa·s; for `CCCC[P+](C)(CCCC)CCCC.COS(=O)(=O)[O-]` [tributylmethylphosphonium methyl sulfate] it is 72.4 ± 1 mPa·s.

The series is the same for the next values; noted with them: 343.15 K; 101.33 kPa; Liquid; Direct current cell with electrodes.
Take `CCCC[P+](C)(CCCC)CCCC.O=S(=O)([N-]S(=O)(=O)C(F)(F)F)C(F)(F)F`: the electrical conductivity worked out at 0.405 ± 0.041 S/m.
Same read-out and setting: then `CCCCn1cc[n+](C)c1.COS(=O)(=O)[O-]` [1-butyl-3-methylimidazolium methyl sulfate], with 0.884 ± 0.088 S/m.
On the same count and under the same terms, then `COS(=O)(=O)[O-].C[n+]1ccccc1` [1-methylpyridinium methylsulfate], with 1.75 ± 0.18 S/m.
On the same count and under the same terms, the figure for `CCCC[P+](C)(CCCC)CCCC.[Cl-]` [methyltributylphosphonium chloride] is 0.0941 ± 0.0094 S/m; for `CCCC[P+](C)(CCCC)CCCC.COS(=O)(=O)[O-]` [tributylmethylphosphonium methyl sulfate] it is 0.139 ± 0.014 S/m.

Staying with this series, now noted: 343.15 K; 101.33 kPa; Liquid; Vibrating tube method.
Consider `CCCC[P+](C)(CCCC)CCCC.O=S(=O)([N-]S(=O)(=O)C(F)(F)F)C(F)(F)F`, for which the mass density is listed as 1217.49 ± 2 kg/m3.
Still for that read-out and setting: the figure for `CCCCn1cc[n+](C)c1.COS(=O)(=O)[O-]` [1-butyl-3-methylimidazolium methyl sulfate] is 1179.31 ± 2 kg/m3; for `COS(=O)(=O)[O-].C[n+]1ccccc1` [1-methylpyridinium methylsulfate] it is 1314.5 ± 2.1 kg/m3; for `CCCC[P+](C)(CCCC)CCCC.[Cl-]` [methyltributylphosphonium chloride] it is 932.12 ± 2 kg/m3.
Consider `CCCC[P+](C)(CCCC)CCCC.COS(=O)(=O)[O-]` [tributylmethylphosphonium methyl sulfate], for which the mass density was 1030.18 ± 2 kg/m3.

The same series, now with this note: 343.15 K; 101.33 kPa; Liquid; transient hot wire.
Consider `CCCC[P+](C)(CCCC)CCCC.O=S(=O)([N-]S(=O)(=O)C(F)(F)F)C(F)(F)F`, for which the thermal conductivity was 0.121 ± 0.002 W/m/K.
Turning to `CCCCn1cc[n+](C)c1.COS(=O)(=O)[O-]` [1-butyl-3-methylimidazolium methyl sulfate], the thermal conductivity came out at 0.172 ± 0.002 W/m/K.
On to `COS(=O)(=O)[O-].C[n+]1ccccc1` [1-methylpyridinium methylsulfate], for which the thermal conductivity is given as 0.201 ± 0.002 W/m/K.
Still for that read-out and setting: then `CCCC[P+](C)(CCCC)CCCC.[Cl-]` [methyltributylphosphonium chloride], with 0.154 ± 0.002 W/m/K; and `CCCC[P+](C)(CCCC)CCCC.COS(=O)(=O)[O-]` [tributylmethylphosphonium methyl sulfate], with 0.157 ± 0.002 W/m/K.
